The record followed here is patent publication US12441768B2, “Compositions and methods for treating endometriosis” (EndoMet Biosciences, Inc., priority 2018, dated 2025).

The assay addresses T1, β-catenin (Homo sapiens, UniProt P35222).
T1 sequence (P35222 1-781): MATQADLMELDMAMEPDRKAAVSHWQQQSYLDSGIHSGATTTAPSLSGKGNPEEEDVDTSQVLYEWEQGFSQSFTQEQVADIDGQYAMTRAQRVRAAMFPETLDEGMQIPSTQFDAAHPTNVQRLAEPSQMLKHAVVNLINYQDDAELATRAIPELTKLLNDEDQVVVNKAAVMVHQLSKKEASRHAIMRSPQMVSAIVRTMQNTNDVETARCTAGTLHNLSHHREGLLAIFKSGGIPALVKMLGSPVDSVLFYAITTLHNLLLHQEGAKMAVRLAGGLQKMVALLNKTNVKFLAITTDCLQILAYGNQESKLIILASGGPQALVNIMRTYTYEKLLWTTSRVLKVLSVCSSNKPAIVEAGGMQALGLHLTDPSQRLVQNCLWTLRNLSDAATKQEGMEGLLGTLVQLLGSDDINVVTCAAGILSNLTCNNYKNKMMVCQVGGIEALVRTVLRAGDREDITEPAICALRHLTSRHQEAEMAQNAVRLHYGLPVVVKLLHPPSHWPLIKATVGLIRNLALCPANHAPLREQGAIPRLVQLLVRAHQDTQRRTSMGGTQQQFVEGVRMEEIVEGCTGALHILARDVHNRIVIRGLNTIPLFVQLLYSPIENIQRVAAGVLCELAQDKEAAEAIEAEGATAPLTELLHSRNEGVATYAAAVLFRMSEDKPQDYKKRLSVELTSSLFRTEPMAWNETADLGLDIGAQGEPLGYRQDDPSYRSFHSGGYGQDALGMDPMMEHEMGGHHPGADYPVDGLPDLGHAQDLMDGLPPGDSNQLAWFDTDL
The experiment in a line: KD50 measurement using competitive fluorescence polarization (FP) with labelled TCF4. The settings on record: fluorescence polarization, β-catenin. In kind it is binding. In short, it runs like this: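 First, β-catenin at 100 nM is mixed with 5 nM labelled TCF4 at room temperature. Next, compound is added across serial dilutions (10 nM to 30 uM). Finally, fluorescence polarization is measured (ex 470 nm, em 520 nm); experiments are done three times.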

Read-outs that look alike come from different tables or passages of the source. Where a SMILES comes first, the peptide text is derived from it.

In the case of `CC[C@H](C)[C@@H]1NC(=O)[C@H](CC(C)C)NC(=O)[C@H](Cc2ccccc2)NC(=O)[C@H](Cc2c[nH]c3ccccc23)NC(=O)[C@@H](N)CCCCNC(=O)CN(CC(=O)O)C(=O)[C@H](Cc2c[nH]c3ccccc23)NC(=O)[C@H](C)NC(=O)[C@H](CS)NC1=O` [compound 284], the “β-Cat FP Hill slope” value was found to be 0.7.

`CC[C@H](C)[C@@H]1NC(=O)[C@@H](NC(=O)[C@H](CCC(N)=O)NC(=O)[C@H](C)N(C)C(=O)[C@@H](N)Cc2c[nH]c3ccccc23)CCCCNC(=O)CC[C@@H](C(=O)N[C@@H](Cc2c[nH]cn2)C(=O)N[C@H](C(=O)N[C@@H](CCC(N)=O)C(=O)N[C@@H](CCCNC(=N)N)C(=O)N[C@H](C(=O)N[C@@H](Cc2c[nH]c3ccccc23)C(=O)NCC(N)=O)C(C)C)C(C)C)NC(=O)[C@H](CC(=O)O)NC(=O)[C@H](CC2CCCCC2)NC1=O` [compound 406] (HELM PEPTIDE1{W.[meA].Q.K.I.[Cha].D.E.H.V.Q.R.V.W.G.[am]}$PEPTIDE1,PEPTIDE1,4:R3-8:R3$$$V2.0): the Kd (read-out: β-Cat FP KD) is over 30 µM.

In the case of `CC[C@H](C)[C@@H]1NC(=O)[C@@H](NC(=O)[C@H](CCC(N)=O)NC(=O)[C@H](C)N(C)C(=O)[C@H](Cc2c[nH]c3ccccc23)NC(C)=O)CCCCNC(=O)CC[C@@H](C(=O)N[C@@H](Cc2c[nH]cn2)C(=O)N[C@H](C(=O)N[C@@H](CCC(N)=O)C(=O)N[C@@H](CCCNC(=N)N)C(=O)N[C@H](C(=O)N[C@@H](Cc2c[nH]c3ccccc23)C(=O)NCC(N)=O)C(C)C)C(C)C)NC(=O)[C@H](CC(=O)O)NC(=O)[C@H](CC2CCCCC2)NC1=O` [compound 407] (HELM PEPTIDE1{[ac].W.[meA].Q.K.I.[Cha].D.E.H.V.Q.R.V.W.G.[am]}$PEPTIDE1,PEPTIDE1,5:R3-9:R3$$$V2.0), under “read-out: β-Cat FP KD”, the dissociation constant (Kd) was over 30 µM.

`CC[C@H](C)[C@@H]1NC(=O)[C@@H](NC(=O)[C@H](CCC(N)=O)NC(=O)[C@H](C)N(C)C(=O)[C@H](Cc2c[nH]c3ccccc23)NC(=O)COc2ccccc2)CCCCNC(=O)CC[C@@H](C(=O)N[C@@H](Cc2c[nH]cn2)C(=O)N[C@H](C(=O)N[C@@H](CCC(N)=O)C(=O)N[C@@H](CCCNC(=N)N)C(=O)N[C@H](C(=O)N[C@@H](Cc2c[nH]c3ccccc23)C(=O)NCC(N)=O)C(C)C)C(C)C)NC(=O)[C@H](CC(=O)O)NC(=O)[C@H](CC2CCCCC2)NC1=O` [compound 408] (HELM PEPTIDE1{[O=C(COc1ccccc1)[*:2]].W.[meA].Q.K.I.[Cha].D.E.H.V.Q.R.V.W.G.[am]}$PEPTIDE1,PEPTIDE1,5:R3-9:R3$$$V2.0) returned a Kd (β-Cat FP KD) of over 30 µM.

In the case of `CC[C@H](C)[C@H](NC(=O)[C@H](CO)NC(=O)[C@H](CCC(=O)O)NC(=O)[C@@H]1CCCN1C(=O)[C@H](CC(C)C)NC(=O)[C@H](CCCNC(=N)N)NC(=O)CCNC(C)=O)C(=O)N[C@@H](CC(C)C)C(=O)N[C@@H](CC(=O)O)C(=O)N[C@@H](CCC(=O)O)C(=O)N[C@@H](Cc1c[nH]cn1)C(=O)N[C@@H](Cc1c[nH]c2ccccc12)C(=O)N[C@@H](CCC(N)=O)C(=O)N[C@@H](CCCNC(=N)N)C(=O)N[C@H](C(=O)N[C@@H](Cc1c[nH]c2ccccc12)C(=O)N1CCC[C@H]1C(N)=O)C(C)C` [compound 411] (HELM PEPTIDE1{[ac].[bAla].R.L.P.E.S.I.L.D.E.H.W.Q.R.V.W.P.[am]}$$$$V2.0), the “β-Cat FP Hill slope” value is reported as 0.7. For the same compound, the Kd (read-out: β-Cat FP KD) lay in the range of 1 to 10 µM.

As for `CC[C@H](C)[C@@H]1NC(=O)[C@@H](NC(=O)[C@H](CCC(N)=O)NC(=O)[C@H](C)N(C)C(=O)[C@H](Cc2c[nH]c3ccccc23)NC(C)=O)CCCCNC(=O)CC[C@@H](C(=O)N[C@@H](Cc2c[nH]cn2)C(=O)N[C@H](C(=O)NC(C)(C)C(=O)N[C@@H](CCCNC(=N)N)C(=O)N[C@H](C(=O)N[C@@H](Cc2c[nH]c3ccccc23)C(=O)NCC(N)=O)C(C)C)C2CCCCC2)NC(=O)[C@H](CC(=O)O)NC(=O)[C@H](CC(C)C)NC1=O` [compound 414] (HELM PEPTIDE1{[ac].W.[meA].Q.K.I.L.D.E.H.[O=C([C@@H](N[*:1])C1CCCCC1)[*:2]].[Aib].R.V.W.G.[am]}$PEPTIDE1,PEPTIDE1,5:R3-9:R3$$$V2.0), the “β-Cat FP Hill slope” value is listed as 0.7. Also, the Kd (read-out: β-Cat FP KD) is under 0.4 µM.

For `CC[C@H](C)[C@@H]1NC(=O)[C@@H](NC(=O)[C@H](CCC(N)=O)NC(=O)[C@H](C)N(C)C(=O)[C@@H](N)Cc2c[nH]c3ccccc23)CCCCNC(=O)CC[C@@H](C(=O)N[C@@H](Cc2c[nH]cn2)C(=O)N[C@H](C(=O)N[C@@H](CO)C(=O)N[C@@H](CCCNC(=N)N)C(=O)N[C@H](C(=O)N[C@@H](Cc2c[nH]c3ccccc23)C(=O)NCC(N)=O)C(C)C)C2CCCCC2)NC(=O)[C@H](CC(=O)O)NC(=O)[C@H](CC(C)C)NC1=O` [compound 415] (HELM PEPTIDE1{W.[meA].Q.K.I.L.D.E.H.[O=C([C@@H](N[*:1])C1CCCCC1)[*:2]].S.R.V.W.G.[am]}$PEPTIDE1,PEPTIDE1,4:R3-8:R3$$$V2.0), the “β-Cat FP Hill slope” value is reported as 0.7. Besides, the Kd (read-out: β-Cat FP KD) was under 0.4 µM.

`CC[C@H](C)[C@@H]1NC(=O)[C@@H](NC(=O)[C@H](CCC(N)=O)NC(=O)[C@H](C)N(C)C(=O)[C@H](Cc2c[nH]c3ccccc23)NC(C)=O)CCCCNC(=O)CC[C@@H](C(=O)N[C@@H](Cc2c[nH]cn2)C(=O)N[C@H](C(=O)N[C@@H](CO)C(=O)N[C@@H](CCCNC(=N)N)C(=O)N[C@H](C(=O)N[C@@H](Cc2c[nH]c3ccccc23)C(=O)NCC(N)=O)C(C)C)C2CCCCC2)NC(=O)[C@H](CC(=O)O)NC(=O)[C@H](CC(C)C)NC1=O` [compound 416] (HELM PEPTIDE1{[ac].W.[meA].Q.K.I.L.D.E.H.[O=C([C@@H](N[*:1])C1CCCCC1)[*:2]].S.R.V.W.G.[am]}$PEPTIDE1,PEPTIDE1,5:R3-9:R3$$$V2.0): the “β-Cat FP Hill slope” value is recorded as 0.7. For the setting “read-out: β-Cat FP KD”, the Kd is under 0.4 µM.

With `CC[C@H](C)[C@@H]1NC(=O)[C@@H](NC(=O)C(C)(C)NC(=O)[C@H](C)N(C)C(=O)[C@@H](N)Cc2c[nH]c3ccccc23)CCCCNC(=O)CC[C@@H](C(=O)N[C@@H](Cc2c[nH]cn2)C(=O)N[C@H](C(=O)N[C@@H](CCC(N)=O)C(=O)N[C@@H](CCCNC(=N)N)C(=O)N[C@H](C(=O)N[C@@H](Cc2c[nH]c3ccccc23)C(=O)NCC(N)=O)C(C)C)C2CCCCC2)NC(=O)[C@H](CC(=O)O)NC(=O)[C@H](CC(C)C)NC1=O` [compound 417] (HELM PEPTIDE1{W.[meA].[Aib].K.I.L.D.E.H.[O=C([C@@H](N[*:1])C1CCCCC1)[*:2]].Q.R.V.W.G.[am]}$PEPTIDE1,PEPTIDE1,4:R3-8:R3$$$V2.0), the “β-Cat FP Hill slope” value was determined as 0.93. Where the note is “read-out: β-Cat FP KD”, the Kd was under 0.4 µM.

For the compound `CC[C@H](C)[C@@H]1NC(=O)[C@@H](NC(=O)C(C)(C)NC(=O)[C@H](C)N(C)C(=O)[C@H](Cc2c[nH]c3ccccc23)NC(C)=O)CCCCNC(=O)CC[C@@H](C(=O)N[C@@H](Cc2c[nH]cn2)C(=O)N[C@H](C(=O)N[C@@H](CCC(N)=O)C(=O)N[C@@H](CCCNC(=N)N)C(=O)N[C@H](C(=O)N[C@@H](Cc2c[nH]c3ccccc23)C(=O)NCC(N)=O)C(C)C)C2CCCCC2)NC(=O)[C@H](CC(=O)O)NC(=O)[C@H](CC(C)C)NC1=O` [compound 418] (HELM PEPTIDE1{[ac].W.[meA].[Aib].K.I.L.D.E.H.[O=C([C@@H](N[*:1])C1CCCCC1)[*:2]].Q.R.V.W.G.[am]}$PEPTIDE1,PEPTIDE1,5:R3-9:R3$$$V2.0), the “β-Cat FP Hill slope” value is listed as 1.03. Further, the Kd (read-out: β-Cat FP KD) was over 30 µM.
